These are literature values, as cited in patent publication US8895779B2 (BioAmber Inc., priority 2010, dated 2014).

SMILES strings stand for the structures.

The conditions of this series: Table 1, Run 1, acid charged.

For `O=C(O)CCCCC(=O)O` [AA, adipic acid], the pKa1 is 4.43.
